Earlier results in US20150237898A1, “STEVIOSIDE BLENDS” (Cargill, Incorporated, priority 2012, published 2015).
Entries after “also recorded” stand apart in the source; their conditions may differ.

Conditions: literature

Compound | bitterness compared with other glycosides | sweetening power / sweetness compared with other glycosides
C=C1C[C@@]23CC[C@H]4[C@@](C)(CCC[C@@]4(C)C(=O)O[C@@H]4O[C@H](CO)[C@@H](O)[C@H](O)[C@H]4O)[C@@H]2CC[C@]1(O[C@@H]1O[C@H](CO)[C@@H](O)[C@H](O)[C@H]1O[C@@H]1O[C@H](CO)[C@@H](O)[C@H](O)[C@H]1O)C3 [stevioside] | much more bitter than Reb A and other glycosides | much less sweet
C=C1C[C@@]23CC[C@H]4[C@@](C)(CCC[C@@]4(C)C(=O)O[C@@H]4O[C@H](CO)[C@@H](O)[C@H](O)[C@H]4O)[C@@H]2CC[C@]1(O[C@@H]1O[C@H](CO)[C@@H](O)[C@H](O[C@@H]2O[C@H](CO)[C@@H](O)[C@H](O)[C@H]2O)[C@H]1O[C@@H]1O[C@H](CO)[C@@H](O)[C@H](O)[C@H]1O)C3 [Reb A, rebaudioside A] |  | highest sweetening power of all the glycosides; also recorded: more potent and more pleasant tasting than stevioside
